Columns and labels:
HT1080 = assay: MTS proliferation assay, HT1080; format: cell-based, human; details: HT1080, 72 h incubation; read-out: MTS proliferation assay IC 50 HT1080
How it was run: (§1)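 Cells were seeded 24 h before treatment and exposed to compound at 10, 3, 1 and 0.3 μM final for 72 h at 37 °C, 7.5% CO2 in RPMI-1640 with 5% or 10% FCS. Viability was read by MTS reagent (3 h) as absorbance at 492 nm.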

HeLa = assay: MTS proliferation assay, HeLa; format: cell-based, human; details: 72 h incubation, read-out: MTS proliferation assay IC 50 HeLa
How it was run: as §1

Jily = assay: MTS proliferation assay, Jily; format: cell-based; details: 72 h incubation, read-out: MTS proliferation assay IC 50 Jily
Protocol: Cell lines are cultured in RPMI-1640 tissue culture medium containing either 5% or 10% fetal calf serum, 0.05 mM 2-mercaptoethanol, 2 mM glutamine and penicillin/streptomycin 50 μg/ml (complete medium) (Sigma, Buchs, Switzerland). General growth conditions are 37° C. and 7.5% CO2.
The assay is performed in 96 well tissue culture plates. The cells (range: 1.5*10^3-10^4) are seeded out in 80 μl complete medium 24 h prior to compound treatment. The test compounds are added in 20 μl complete medium containing max 5% DMSO. The final compound concentrations in the assays are 10 μM, 3 μM, 1 μM and 0.3 μM, respectively. The assay plates are incubated for 72 h at culture conditions. The MTS reagent is prepared according to the manufacturer's protocol (Promega G1111). 20 μl MTS reagent are added to each well, the assay plates are quickly spun and incubated for another 3 h at culture conditions. Subsequently, the plates are shortly shaked and absorption measured with a microplate-reader at 492 nm.

MRC5 = assay: MTS proliferation assay, MRC5; format: cell-based; details: MRC5, 72 h incubation; read-out: MTS proliferation assay IC 50 MRC5
How it was run: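 Cells in RPMI-1640 with 5% or 10% FCS, 2-mercaptoethanol and glutamine were seeded 24 h before treatment with compound at final 10, 3, 1 and 0.3 μM. After 72 h at 37° C and 7.5% CO2, MTS reagent was added for 3 h and absorbance read at 492 nm.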

[1] = test system: adherent cells or suspension cells; assay: Hoechst 33342 nuclear staining (fraction of apoptotic nuclei); format: cell-based; parameters: key: 0 relating to no activity; 1 relating to weak activity comprising less than 70% of the cells; score 2 relating to strong activity comprising more than 70% of the cells

Compound	IC50 (HT1080) [nM]	IC50 (HeLa) [nM]	IC50 (Jily) [nM]	IC50 (MRC5) [nM]	Hoechst 33342 nuclear staining score ([1]; H460, conc 0.01 μm)	Hoechst 33342 nuclear staining score ([1]; H460, conc 0.1 μm)	Hoechst 33342 nuclear staining score ([1]; H460, conc 1 μm)	Hoechst 33342 nuclear staining score ([1]; HeLa, conc 0.01 μm)	Hoechst 33342 nuclear staining score ([1]; HeLa, conc 0.1 μm)	Hoechst 33342 nuclear staining score ([1]; HeLa, conc 1 μm)	Hoechst 33342 nuclear staining score ([1]; Jily, conc 0.01 μm)	Hoechst 33342 nuclear staining score ([1]; Jily, conc 0.1 μm)	Hoechst 33342 nuclear staining score ([1]; Jily, conc 1 μm)	Hoechst 33342 nuclear staining score ([1]; Jurkat, conc 0.01 μm)	Hoechst 33342 nuclear staining score ([1]; Jurkat, conc 0.1 μm)	Hoechst 33342 nuclear staining score ([1]; Jurkat, conc 1 μm)	Hoechst 33342 nuclear staining score ([1]; MRC5, conc 0.01 μm)	Hoechst 33342 nuclear staining score ([1]; MRC5, conc 0.1 μm)	Hoechst 33342 nuclear staining score ([1]; MRC5, conc 1 μm)	Hoechst 33342 nuclear staining score ([1]; PBLs, conc 0.01 μm)	also measured
CCc1ccc(C(=O)Cn2c(-c3nonc3NCCC#N)nc3ccccc32)cc1 [Example 56]	10 to 100	10 to 100	10 to 100	10 to 100	0	0	2 (score 2 relating to strong activity comprising more than 70% of the cells)	0	1 (1 relating to weak activity comprising less than 70% of the cells)	2 (score 2 relating to strong activity comprising more than 70% of the cells)	0	2 (score 2 relating to strong activity comprising more than 70% of the cells)	2 (score 2 relating to strong activity comprising more than 70% of the cells)	0	2 (score 2 relating to strong activity comprising more than 70% of the cells)	2 (score 2 relating to strong activity comprising more than 70% of the cells)	0	1 (1 relating to weak activity comprising less than 70% of the cells)	1 (1 relating to weak activity comprising less than 70% of the cells)	0	Hoechst 33342 nuclear staining score ([1]; PBLs, conc 0.1 μm): 0; Hoechst 33342 nuclear staining score ([1]; PBLs, conc 1 μm): 0
Nc1nonc1-c1nc2ccccc2n1CC(=O)c1cc(F)ccc1F [Example 71]	> 1000	100 to 1000	100 to 1000	> 1000	0	0	0	0	0	0	0	0	1 (1 relating to weak activity comprising less than 70% of the cells)	0	0	2 (score 2 relating to strong activity comprising more than 70% of the cells)	0	0	0	0	Hoechst 33342 nuclear staining score ([1]; PBLs, conc 0.1 μm): 0; Hoechst 33342 nuclear staining score ([1]; PBLs, conc 1 μm): 0
Cc1ccc(OCn2c(-c3nonc3N)nc3ccccc32)cc1C [Example 101]	10 to 100	10 to 100	10 to 100	10 to 100	0	1 (1 relating to weak activity comprising less than 70% of the cells)	2 (score 2 relating to strong activity comprising more than 70% of the cells)	0	1 (1 relating to weak activity comprising less than 70% of the cells)	2 (score 2 relating to strong activity comprising more than 70% of the cells)	0	1 (1 relating to weak activity comprising less than 70% of the cells)	2 (score 2 relating to strong activity comprising more than 70% of the cells)	0	2 (score 2 relating to strong activity comprising more than 70% of the cells)	2 (score 2 relating to strong activity comprising more than 70% of the cells)	0	1 (1 relating to weak activity comprising less than 70% of the cells)	1 (1 relating to weak activity comprising less than 70% of the cells)	0	Hoechst 33342 nuclear staining score ([1]; PBLs, conc 0.1 μm): 0; Hoechst 33342 nuclear staining score ([1]; PBLs, conc 1 μm): 0
CCc1ccc(C(=O)Cn2c(-c3nonc3N)nc3ccccc32)cc1 [Example 55]	100 to 1000	100 to 1000	10 to 100	100 to 1000	0	0	2 (score 2 relating to strong activity comprising more than 70% of the cells)	0	0	2 (score 2 relating to strong activity comprising more than 70% of the cells)	0	0	2 (score 2 relating to strong activity comprising more than 70% of the cells)	0	1 (1 relating to weak activity comprising less than 70% of the cells)	2 (score 2 relating to strong activity comprising more than 70% of the cells)	0	0	0	0	Hoechst 33342 nuclear staining score ([1]; PBLs, conc 0.1 μm): 0; Hoechst 33342 nuclear staining score ([1]; PBLs, conc 1 μm): 0
Cc1ccc(C(=O)Cn2c(-c3nonc3NCCC#N)nc3ccccc32)cc1C [Example 54]	10 to 100	10 to 100	10 to 100	10 to 100	0	2 (score 2 relating to strong activity comprising more than 70% of the cells)	2 (score 2 relating to strong activity comprising more than 70% of the cells)	0	2 (score 2 relating to strong activity comprising more than 70% of the cells)	2 (score 2 relating to strong activity comprising more than 70% of the cells)	1 (1 relating to weak activity comprising less than 70% of the cells)	2 (score 2 relating to strong activity comprising more than 70% of the cells)	2 (score 2 relating to strong activity comprising more than 70% of the cells)	1 (1 relating to weak activity comprising less than 70% of the cells)	2 (score 2 relating to strong activity comprising more than 70% of the cells)	2 (score 2 relating to strong activity comprising more than 70% of the cells)	0	2 (score 2 relating to strong activity comprising more than 70% of the cells)	2 (score 2 relating to strong activity comprising more than 70% of the cells)	0	Hoechst 33342 nuclear staining score ([1]; PBLs, conc 0.1 μm): 0; Hoechst 33342 nuclear staining score ([1]; PBLs, conc 1 μm): 0

From patent USRE42890E1, “Furazanobenzimidazoles” (Basilea Pharmaceutica AG, priority 2003, dated 2011)
